What was measured:
LIN28 = assay: Western blot of LIN28 levels in P19 cells treated with IGF1R and calpain inhibitors; assay type: cell-based; settings: acute treatment (~12 hrs)
Text: FIGS. 4A-4B show regulation of LIN28 levels by RBM3, IGF1R, and calpain. (A) Western blot showing the effect of RBM3 knock-down (siRNA) on LIN28 levels in P19 cells treated at the neurosphere stage with (or without) retinoic acid (RA) to induce neural differentiation. RBM3 knock-down increases LIN28 and blocks the ability of RA to decrease LIN28. (B) Western blots showing reduction of LIN28 in P19 cells following acute treatment (˜12 hrs) with inhibitors of IGF1R and calpain (each of which increases the expression of the dephosphorylated form of RBM3). […] HDAC is a loading control.
FIGS. 7A-7D show results from additional studies of reducing LIN28 levels via synergistic dual inhibitor strategies. (A & B) Graphs of changes in RBM3 and LIN28 expression in P19 cells treated with the IGF1R inhibitor PPP (10 nM), the calpain inhibitor calpeptin (Cpep, 50 μM), and a combination of PPP plus Cpep (A: n=10-14; B: n=20-24). (C) (top panels) Example of Westerns of LIN28 in P19 cells exposed to PPP, Cpep, and PPP+Cpep; (bottom panels) Example of Westerns of LIN28 and RBM3 in samples from P19 cells treated in triplicate with control and Cpep+PPP conditions. (D) Fold change in let-7 family miRNAs and miR-21 in P19 cells treated with PPP+Cpep as measured by qRT-PCR (n=4). All treatments were for 36 hours. […]

RBM3 = assay: 2D Western blot of RBM3 phosphorylation forms in P19 cells after calpain inhibition; assay type: cell-based
Text: (Top) 2D Western blot of RBM3 in vehicle-treated (DMSO) P19 cells. Red arrows point to exogenously expressed mutant of RBM3 (A4F) with 4 C-term Y to F mutations, and to two phosphorylated endogenous isoforms of RBM3 that differ by a single arginine (Arg). […] A basic spot not present in the control condition appears that corresponds to the pI of dephosphorylated Arg+RBM3, the form of RBM3 that preferentially associates with pre-miRNAs. We further observed that calpain inhibition rescues expression of dephosphorylated RBM3 in pluripotent cells. Calpains are Ca^++-activated cysteine proteases that regulate diverse cellular processes. Calpain's role in pluripotent and cancerous cells prompted us to test whether it regulates the expression of the dephosphorylated form of RBM3 in pluripotent cells (and accounts for the difficulty in expressing non-phosphorylatable mutants in these cells).

| Structure (SMILES) | LIN28 levels (Western blot) (LIN28; Cpep 50 μM) | RBM3 pI distribution (2D Western); basic spot corresponding to dephosphorylated Arg+RBM3 appears (RBM3; P19 cells incubated with calpain inhibitor vs DMSO vehicle) | levels of a non-phosphorylatable mutant of RBM3 (RBM3; pluripotent P19 cells) | levels of the endogenous dephosphorylated form of RBM3 that binds pre-miRNAs (dephos Arg+) (RBM3; pluripotent P19 cells) | LIN28 levels (Western blot) (LIN28; PPP 10 nM) |
| --- | --- | --- | --- | --- | --- |
| CCCC[C@@H](C=O)NC(=O)[C@H](CC(C)C)NC(=O)OCc1ccccc1 [calpeptin] | reduces LIN28 levels | shift in RBM3 pI distribution | increased | increased | – |
| COc1cc([C@@H]2c3cc4c(cc3[C@H](O)[C@H]3COC(=O)[C@@H]23)OCO4)cc(OC)c1OC [picropodophyllin] | – | – | – | – | reduces LIN28 levels |
